In this experiment the test system is aortal, smooth vascular muscle cells. As to the kind of experiment: inhibition of the growth of aortal, smooth vascular muscle cells. Particulars: pharmacologically active even in the smallest concentrations of active substance. Type of experiment: cell-based, human. The procedure: This effect already occurs starting at 1 to 100 nM, preferably 5 to 50 nM, so that already extremely low local concentrations are sufficient for an effective inhibition of restenosis in the region of an implant. This virtually precludes broader side-effects.

In the case of `C/C=C/[C@@H]1O[C@H]([C@H](O)/C=C/C=C(\C)C[C@@H](C)/C=C(C)\C=C\[C@H]2CC=CC(=O)O2)C[C@@H](O)[C@@H]1C` [Ratjadone], the “potency in first experiments” value was “particularly potent”.

Values taken from patent US20070020306A1, “Endovascular implant with an at least sectional active coating made of radjadone and/or a ratjadone derivative” (priority 2003, published 2007).
